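48-hour exposure; five concentrations; linearly interpolated endpoints. GI50: concentration for 50% inhibition of growth. TGI: concentration producing complete growth inhibition.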
Test system: MDA-MB-468 breast
Assay: inhibition of tumour cell growth, NCI panel, 48 h

c1ccc2c3ccn4cc5c(cc4c-3nc2c1)CCCC5
GI50: 1.39 µM | TGI: 3.6 µM

Nc1nc(Br)nc2c1ncn2C1CC(O)C(CO)O1 (centres undefined)
GI50: > 100 µM | TGI: > 100 µM

C#C[C@]1(O)CC[C@H]2[C@@H]3CC=C4c5sc(Nc6ccccc6)nc5CC[C@]4(C)[C@H]3CC[C@@]21C
GI50: 1.71 µM | TGI: 4.25 µM

CC(=O)O[C@@H]1C[C@]2(C(C)C)O[C@@]1(C)[C@@H]1CCC(C)=C1[C@@H]2OC(=O)/C=C/c1ccccc1
GI50: 24.2 µM | TGI: > 100 µM

O=c1[nH]c2cc(Cl)ccc2n1C1CCN(CCCC(c2ccc(F)cc2)c2ccc(F)cc2)CC1
GI50: 1.65 µM | TGI: 3.14 µM

Cc1[nH]n(-c2cccc(Cl)c2)c(=O)c1/C=C1\C=Nc2ccc(Br)cc21
GI50: 3.97 µM | TGI: 29.2 µM

CN1CCc2c(Sc3ccc(C(=O)NO)cc3)c3ccccc3n2C1
GI50: 1.12 µM | TGI: 2.92 µM

O=C(CN(C1CCCCC1)C1CCCCC1)Nc1ccc(S(=O)(=O)c2ccc(NC(=O)CN(C3CCCCC3)C3CCCCC3)cc2)cc1
GI50: 1.04 µM | TGI: 2.93 µM

CCc1cccc2c3c(sc12)C(c1ccc(Cl)cc1)C(C#N)=C(/N=C/c1ccc(Cl)cc1)O3 (centres undefined)
GI50: 0.565 µM | TGI: 2.46 µM

O=C(CCCN1CC=C(n2c(=O)[nH]c3ccccc32)CC1)c1ccc(F)cc1
GI50: 18.8 µM | TGI: 59.5 µM

Cc1c[n+](Cc2ccc3ccccc3c2)cn1Cc1ccc2ccccc2c1
GI50: 0.362 µM | TGI: 1.35 µM

CC(=O)Oc1ccc(Nc2c3ccccc3nc3ccccc23)cc1
GI50: 0.913 µM | TGI: 3.01 µM

CN(C)c1ccc2nc3ccc(=O)cc-3sc2c1
GI50: 1.49 µM | TGI: 6.99 µM

Cc1ccc(N(CSc2ccc(Cl)cc2)CSc2ccc(Cl)cc2)cc1
GI50: 1.91 µM | TGI: 6.23 µM

Nc1nc(Nc2ccccc2)c2ncn(Cc3cc4c(cc3Br)OCO4)c2n1
GI50: < 0.01 µM | TGI: 18.2 µM

O=C(Nc1ccc(Cl)cc1F)c1cc(Br)ccc1O
GI50: 1.13 µM | TGI: 4.45 µM

CCN(CC)CC(C)(C)C(=O)/C=C/c1ccc(Cl)c(Cl)c1
GI50: 1.69 µM | TGI: 3.42 µM

Cc1ccc2c(n1)C(=O)C(Cl)=C(Nc1ccc(C(F)(F)F)cc1)C2=O
GI50: 1.89 µM | TGI: 4 µM

COc1ccc(CNc2c3ccccc3nc3ccccc23)cc1OC
GI50: 1.58 µM | TGI: 4.14 µM

CC(=O)Oc1ccccc1C(=O)N=C1[Se]CCCN1C(=O)c1ccccc1OC(C)=O
GI50: 3.38 µM | TGI: 10.9 µM

Cc1cc(NC(=O)c2ccc(C)c(Nc3nccc(-c4cccnc4)n3)c2)cc(-n2cnc(C)c2)c1
GI50: 1.22 µM | TGI: 3.27 µM

O=C(N/N=C\c1cc(Br)ccc1O)c1ccncc1
GI50: 1.07 µM | TGI: 5.51 µM
